Six compounds from patent US8188126B2, “Imidazolic compounds and use thereof as alpha-2 adrenergic receptors” (Pierre Fabre Medicament, priority 2002, dated 2012) can be followed below.

The target in one test is T1, human alpha-2A receptor (Homo sapiens, UniProt P08913).
T1 construct: expressed in transfected cells; host or cells: C6 cells (rat glioma, by own knowledge) continuously expressing the human receptor; membranes
T1 sequence (P08913 1-465): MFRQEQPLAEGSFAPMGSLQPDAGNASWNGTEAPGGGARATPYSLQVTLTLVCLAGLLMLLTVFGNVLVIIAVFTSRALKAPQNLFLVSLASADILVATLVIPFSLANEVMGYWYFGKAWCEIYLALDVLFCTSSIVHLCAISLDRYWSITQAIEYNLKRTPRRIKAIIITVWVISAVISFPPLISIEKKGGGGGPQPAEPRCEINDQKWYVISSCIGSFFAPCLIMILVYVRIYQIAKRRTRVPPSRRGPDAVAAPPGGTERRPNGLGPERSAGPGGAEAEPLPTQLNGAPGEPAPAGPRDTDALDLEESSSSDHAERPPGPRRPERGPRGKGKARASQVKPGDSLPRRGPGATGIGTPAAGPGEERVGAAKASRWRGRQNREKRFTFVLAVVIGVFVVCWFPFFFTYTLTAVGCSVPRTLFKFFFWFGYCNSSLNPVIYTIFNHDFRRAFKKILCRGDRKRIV
Nature of the test: Bonds with alpha-2 adrenergic receptors ([3H]RX 821002 binding, C6 cell membranes). The conditions noted are these: 2 nM [3H]RX 821002, C6 cell membranes expressing human alpha-2A receptor, 30 min at 25° C.; read-out: Affinity (pKi) Alpha-2A (converted). How it is done: Bonds with Alpha-2 Adrenergic Receptors
The C6 cell membranes continuously expressing the human alpha-2A receptor are prepared in Tris-HCl (pH=7.6). The bond tests are conducted with 2 nM [3H]RX 821002. The incubation medium consists of 0.4 ml of cell membranes (10 μg of proteins), 0.05 ml of radioligand and 0.05 ml of test product or phentolamine (10 μM) to determine the non-specific bond. The reaction is stopped after 30 minutes of incubation at 25° C. by adding 3 ml of Tris-HCl, 50 mM (pH=7.6), cold, followed by filtration on Whatman filters, GF/B using a Brandel. The Ki values are calculated according to the equation Ki=IC50/(1+C/Kd) where C is the concentration and Kd the dissociation constant, pKi=−log Ki. Under these conditions, the compounds according to the invention appear to have a strong affinity for human alpha-2A adrenergic subtype receptors.

In test [1] the target is T2, human alpha-2A adrenergic receptors (Homo sapiens, UniProt P08913).
T2 construct: expressed in transfected cells; host or cells: membrane preparations
T2 sequence (P08913 1-465): T1 sequence (P08913 1-465)
Nature of the test: Measurement of alpha-2 adrenergic receptor activation (GTPγS response on membrane preparations). It is filed as biochemical. The conditions noted are these: expressed with reference to (−)-adrenaline (maximum stimulation = +100), read-out: Intrinsic activity % stimulated. How it is done:
Measurement of Alpha-2 Adrenergic Receptor Activation
The GTPγS responses are produced on membrane preparations in 20 mM HEPES (pH=7.4) with 30 [mu]M of GDP, 100 mM of NaCl, 3 mM of MgCl2 and 0.2 mM of ascorbic acid. The maximum GTPγS stimulation is determined in the presence of […] of (−)-adrenaline and calculated with respect to the basal GTPγS response. The results are expressed with reference to adrenaline or RX 811059. Under these conditions, the compounds according to the invention are distinguished from the majority of the compounds according to the prior art in that they behave more like reverse agonists on human alpha-2A adrenergic receptors (see table above).

Test [2] has as its system scopolamine-induced memory deficiency. Put plainly: Scopolamine-induced memory deficiency test (passive avoidance). Format: in vivo. The conditions noted are these: rats. From the text: Scopolamine-Induced Memory Deficiency Test. Scopolamine has amnesiac properties in animals and humans. In this way, its administration to healthy humans induces certain symptoms similar to those observed in Alzheimer's disease. Therefore, the scopolamine-induced memory deficiency is used as an experimental pharmacological model of the memory disorders observed in the course of this condition. Scopolamine reduces acquisition, memorisation and recall capacities in a passive avoidance test in rats. It consists of measuring the hesitancy, after learning, shown by an animal to enter a dark compartment in which it receives a low-intensity electric shock. The administration of scopolamine does away with this hesitancy and the compounds studied inhibit the effect of scopolamine. The experimental protocol used is described in Psychopharmacol. 1992, 106, 26-30.

The test system of another test is rats. Put plainly: Morris water maze test (spatial memory, probe trial). Format: in vivo. The conditions noted are these: for Effect on spatial memory processes (in words): i.p. after training sessions of days 1 and 2; for Increase in spatial memory performance: probe trial on day 3 after two training days. From the text:
Morris Water Maze—Basic Principles of the Test
In the animal test paradigm, rats are placed into a circular pool containing water and are required to find an escape platform just beneath the surface of the water and therefore invisible to the animal. The performances are dependent on the number of training days.
Morris Water Maze—Detailed Protocol
The water maze test was adapted from the original protocol of Morris (1981). The test apparatus consisted of a circular fibreglass tank (130 cm in diameter, 50 cm deep). The pool was filled to a height of 30 cm with water at room temperature (21-22° C.). The pool was divided into four virtual quadrants (Q1, Q2, Q3 and Q4) of equal surface area. A transparent escape platform made of Plexiglas (10 cm in diameter, 29 cm high) was placed in a fixed location in the tank, 1 cm below the water surface. […] Many extra-maze cues surrounded the maze and were available for the rats to use in locating the escape platform. On the training trials, the platform remained in a constant location in the centre of one quadrant (Q4) equidistant from the centre and the edge of the pool. Each rat received three trials/day for 1, 2, 3 or 4 days. Each training trial involved placing the rat into the pool facing the wall at one of the 3 quadrants Q1, Q2 and Q3. A different starting point was randomly used on each trial. The rats were allowed to swim freely until they found the escape platform. The latency to find the hidden platform was recorded and used as a measure of acquisition of the task. […] The intertrial interval was 20 sec during which the rat remained on the platform. Twenty hours after the last training trial, the platform was removed from the pool, the rats were allowed to swim for 60 sec in the pool and the time spent in the target quadrant Q4 (the quadrant in which the platform was during training) was recorded. The percent time spent in the previous training quadrant Q4 was used as an index of memory. The higher the percentage, the better the memory was considered to be (Yavich L., Sirviö J., Haapalinna A., Puumala T., Koivisto E., Heinonen E., Riekkinen P. Jr. (1996) The systemic administration of tacrine or selegeline facilitate spatial learning in aged Fisher 344 rats. J Neural Transm 103: 619-626).
Pharmacological Treatment and Statistical Analysis
Rats received two training days and were tested in a probe trial, without platform, on the third day. […] Results were expressed as the mean±standard error of the mean (SEM) of performance (latency to find the platform and percentage time spent in target quadrant) and were analysed by one-way analysis of variance, with drug treatment as the factor, followed by a 2-tailed Student t-test (GB-STAT, Friedman P. (1991) GB-STAT: computer aided statistics & graphics, Ver 3.0. Dynamic Microsystems, Inc., Silver Spring). In the probe trial, without platform, results were also compared to chance performance (25%) by a 1-sample Student t-test (GB-STAT, Friedman, 1991). Results obtained with compounds I-1 (Example 4), (−)-1-1 (Example 6), (+)-1-1 (Example 5) and 1-2 (Example 7): […]

For `c1ccc2c(c1)C1CC1(c1cnc[nH]1)C21CC1` (single isomer, unassigned; (-)) [(-)-1-1, (−)-4-(6-spiro-1′-cyclopropane-1a,6-dihydro-1H-cyclopropa[a]inden-6a-yl)-1H-imidazole], the Ki on human alpha-2A receptor is 2.51 nM. In addition, the Emax in test [1] was 37%. In test [2] (dose 2.5 mg/kg i.p.), the “Scopolamine memory deficiency % aplitude of effect” value was “+138%”. Moreover, the “Effect on spatial memory processes (in words)” value (“Effect … (in words)” for short) in the test with rats is listed as “promnesic effect”. Moreover, in the test with rats (0.63 and 2.5 mg/kg i.p. immediately after training sessions), the “Increase in spatial memory performance” value was “up to 48%”.

With `Fc1ccc2c(c1)C1(CC1)C1(c3c[nH]cn3)CC21` (stereo not drawn) [Compound 1-5, 4-(4-fluoro-6-spiro-t-cyclopropane-1a,6-dihydro-1H-cyclopropa[a]inden-6a-yl)-1H-imidazole], the Ki on human alpha-2A receptor was 0.316 nM. In addition, the Emax in test [1] was -10%. Further, the “Scopolamine memory deficiency % aplitude of effect” value in test [2] (dose 0.63 mg/kg i.p.) is “+241%”.

As for `c1ccc2c(c1)C1CC1(c1c[nH]cn1)C21CC1` (single isomer, unassigned; (+)) [(+)-1-1, (+)-4-(6-spiro-1′-cyclopropane-1a,6-dihydro-1H-cyclopropa[a]inden-6a-yl)-1H-imidazole], in the test with rats, the “Effect … (in words)” value is on record as “promnesic effect”. Moreover, the “Increase in spatial memory performance” value in the test with rats (0.16 mg/kg i.p. immediately after training sessions) came to 17%.

Turning to `c1ccc2c(c1)C1CC1(c1cnc[nH]1)C21CC1` (stereo not drawn) [Compound 1-1, 4-(6-spiro-1′-cyclopropane-1a,6-dihydro-1H-cyclopropa[a]inden-6a-yl)-1H-imidazole], the Ki on human alpha-2A receptor is 0.316 nM. The Emax in test [1] stood at 14%. In addition, in test [2] (dose 2.5 mg/kg i.p.), the “Scopolamine memory deficiency % aplitude of effect” value is listed as “+122%”. Besides, the “Effect … (in words)” value in the test with rats is “promnesic effect”. In addition, the “Increase in spatial memory performance” value in the test with rats (2.5 mg/kg i.p. immediately after training sessions) is reported as 46%.

Consider `C[C@@H]1[C@H]2c3ccccc3C3(CC3)[C@@]12c1c[nH]cn1` (relative stereo) [Compound 1-2, 4-(1-exo-methyl-6-spiro-1′-cyclopropane-1a,6-dihydro-1H-cyclopropa[a]inden-6a-yl)-1H-imidazole], for which the Ki on human alpha-2A receptor was 7.94 nM. In test [1], the Emax worked out at 7%. Further, the “Scopolamine memory deficiency % aplitude of effect” value in test [2] (dose 0.63 mg/kg i.p.) was “+201%”. Also, in the test with rats, the “Effect … (in words)” value is given as “promnesic effect”. In addition, the “Increase in spatial memory performance” value in the test on rats (2.54 mg/kg i.p. immediately after training sessions) turned out to be 42%.

On to `COc1cc2c(cc1OC)C(=O)C(CC1CCN(Cc3ccccc3)CC1)C2` (stereo not drawn) [Donepezil, reference compound], for which the “Scopolamine memory deficiency % aplitude of effect” value in test [2] (dose 0.16 mg/kg i.p.) is “+67%”.
